According to patent US20090239841A1, “Diaryl Ureas as CB1 Antagonists” (priority 2004, published 2009):

Biological target: T1, hCB1 (Homo sapiens, UniProt P21554)
T1 construct: made in house; host or cells: Sf9 insect cells (baculovirus), P2 membranes
Assay: Agonist-induced GTP binding (GTPγ35S) assay at CB1, Example 8
Type: biochemical
Settings: IC50 at CB1, determined as described in Example 8; read-out: IC50
In short: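 Antagonism read as inhibition of 1 nM CP55,940-stimulated GTPγ35S ([…]) binding, compounds at 10^−10 to 10^−5 M. Baculovirus-infected Sf9 membranes bearing hCB1 plus G-protein subunits, 60 min room-temperature incubation with 5 μM GDP. Filtration and scintillation counting; data as percent over basal.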

T1 sequence (P21554 whole entry): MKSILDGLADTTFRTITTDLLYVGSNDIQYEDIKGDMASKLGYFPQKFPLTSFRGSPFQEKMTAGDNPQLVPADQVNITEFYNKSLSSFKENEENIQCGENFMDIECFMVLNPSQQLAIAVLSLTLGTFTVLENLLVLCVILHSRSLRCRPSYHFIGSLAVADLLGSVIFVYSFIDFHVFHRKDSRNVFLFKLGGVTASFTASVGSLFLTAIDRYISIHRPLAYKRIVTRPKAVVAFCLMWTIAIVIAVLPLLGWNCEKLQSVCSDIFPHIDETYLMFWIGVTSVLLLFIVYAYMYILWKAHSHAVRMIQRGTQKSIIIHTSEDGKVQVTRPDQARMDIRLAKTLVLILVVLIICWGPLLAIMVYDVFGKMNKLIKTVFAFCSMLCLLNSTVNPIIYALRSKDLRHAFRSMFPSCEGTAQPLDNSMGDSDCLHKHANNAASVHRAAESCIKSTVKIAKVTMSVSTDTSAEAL

IC50, < 2000 nM:
CCOC(=O)c1ccc(NC(=O)Nc2ccc(F)c(C)c2)cc1 [Compound 738, ethyl 4-({[(4-fluoro-3-methylphenyl)amino]carbonyl}amino)benzoate]
COc1ccc(NC(=O)Nc2ccc(Cl)cc2)cc1 [Compound 383, 1-(4-chlorophenyl)-3-(4-methoxyphenyl)urea]
CC(=O)c1ccc(NC(=O)Nc2cccc(OC(C)C)c2)cc1 [Compound 420, 1-(4-acetylphenyl)-3-(3-isopropoxyphenyl)urea]
CN1CCN(S(=O)(=O)c2cccc(NC(=O)Nc3cccc(OC(F)F)c3)c2)CC1 [Compound 788, N-[3-(difluoromethoxy)phenyl]-N′-{3-[(4-methyl-1-piperazinyl)sulfonyl]phenyl}urea]
CCOC(=O)c1ccc(NC(=O)Nc2ccc(F)cc2)cc1 [Compound 476, ethyl 4-({[(4-fluorophenyl)amino]carbonyl}amino)benzoate]
CCc1cccc(NC(=O)Nc2ccc(C(=O)OC)cc2)c1 [Compound 494, methyl 4-({[(3-ethylphenyl)amino]carbonyl}amino)benzoate]
CCOC(=O)c1cccc(NC(=O)Nc2ccc(COC)cc2)c1 [Compound 669, ethyl 3-[({[4-(methoxymethyl)phenyl]amino}carbonyl)amino]benzoate]
COc1cccc(NC(=O)Nc2ccc(C)c(Cl)c2)c1 [Compound 621, 1-(3-chloro-4-methylphenyl)-3-(3-methoxyphenyl)urea]
CCOc1cccc(NC(=O)Nc2ccc(CC)cc2)c1 [Compound 385, 1-(3-ethoxyphenyl)-3-(4-ethylphenyl)urea]
CCc1ccc(NC(=O)Nc2cccc(C(=O)OC)c2)cc1 [Compound 645, methyl 3-({[(4-ethylphenyl)amino]carbonyl}amino)benzoate]
Cc1cccc(NC(=O)Nc2ccc(C(=O)OC(C)C)cc2)c1 [Compound 477, isopropyl 4-({[(3-methylphenyl)amino]carbonyl}amino)benzoate]
Cc1ccc(NC(=O)Nc2ccc(CC#N)cc2)cc1 [Compound 460, 1-[4-(cyanomethyl)phenyl]-3-(4-methylphenyl)urea]
Cc1ccc(NC(=O)Nc2ccc(F)cc2)cc1Cl [Compound 434, 1-(3-chloro-4-methylphenyl)-3-(4-fluorophenyl)urea]
CCc1ccc(NC(=O)Nc2cccc(OC(F)F)c2)cc1 [Compound 407, 1-[3-(difluoromethoxy)phenyl]-3-(4-ethylphenyl)urea]
CCOC(=O)c1cccc(NC(=O)Nc2ccc(C)cc2)c1 [Compound 643, ethyl 3-({[(4-methylphenyl)amino]carbonyl}amino)benzoate]
CCc1ccc(NC(=O)Nc2cccc([N+](=O)[O-])c2)cc1 [Compound 527, 1-(4-ethylphenyl)-3-(3-nitrophenyl)urea]
Cc1ccc(NC(=O)Nc2ccc(OC(C)C)cc2)cc1C [Compound 691, 1-(3,4-dimethylphenyl)-3-(4-isopropoxyphenyl)urea]
CCc1cccc(NC(=O)Nc2ccc(C)cc2)c1 [Compound 324, 1-(3-ethylphenyl)-3-(4-methylphenyl)urea]
CCn1nnc(-c2ccc(NC(=O)Nc3cccc(OC(F)F)c3)cc2)n1 [Compound 792, N-[3-(difluoromethoxy)phenyl]-N′-[4-(2-ethyl-2H-tetrazol-5-yl)phenyl]urea]
Cc1ccc(F)c(NC(=O)Nc2cccc(OC(F)F)c2)c1 [Compound 699, 1-[3-(difluoromethoxy)phenyl]-3-(2-fluoro-5-methylphenyl)urea]
CCc1ccc(NC(=O)Nc2cccc(C)c2)cc1 [Compound 289, N-(4-ethylphenyl)-N′-(3-methylphenyl)urea]
CCOC(=O)c1ccc(NC(=O)Nc2cccc(O)c2)cc1 [Compound 746, ethyl 4-({[(3-hydroxyphenyl)amino]carbonyl}amino)benzoate]
CCCc1ccc(NC(=O)Nc2ccc(OC)cc2)cc1 [Compound 525, 1-(4-methoxyphenyl)-3-(4-propylphenyl)urea]
O=C(Nc1ccc(F)cc1)Nc1ccc2c(c1)CCC2 [Compound 432, 1-(2,3-dihydro-1H-inden-5-yl)-3-(4-fluorophenyl)urea]
Cc1ccc(NC(=O)Nc2ccc(OCC(C)O)cc2)cc1F (stereo not shown) [Compound 763, 1-(3-fluoro-4-methylphenyl)-3-[4-(2-hydroxypropoxy)phenyl]urea]

Same assay, conditions: Table I; IC50 at CB1, GTP binding with 1 nM CP55,940; read-out: IC50

IC50, < 2000 nM:
CC(=O)c1cccc(NC(=O)Nc2ccc(OC(F)F)cc2)c1 [Compound 12, N-(3-acetylphenyl)-N′-[4-(difluoromethoxy)phenyl]urea]

Same assay, conditions: Table II; IC50 at CB1, GTP binding with 1 nM CP55,940; read-out: IC50

IC50, < 2000 nM:
O=C(Nc1ccc(OC(F)F)cc1)Nc1cc(Cl)cc(Cl)c1 [Compound 93, N-(3,5-dichlorophenyl)-N′-[4-(difluoromethoxy)phenyl]urea]
CC(=O)c1ccc(NC(=O)Nc2ccc(OC(F)F)cc2)cc1 [Compound 288, N-(4-acetylphenyl)-N′-[4-(difluoromethoxy)phenyl]urea]
CC(=O)c1ccc(NC(=O)Nc2cccc(Cl)c2)cc1 [Compound 191, N-(4-acetylphenyl)-N′-(3-chlorophenyl)urea]
Cc1n[nH]c(C)c1-c1cccc(NC(=O)Nc2ccc(OC(F)F)cc2)c1 [Compound 117, N-[4-(difluoromethoxy)phenyl]-N′-[3-(3,5-dimethyl-1H-pyrazol-4-yl)phenyl]urea]
Cc1ccc(NC(=O)Nc2cccc(C#N)c2)cc1 [Compound 186, N-(3-cyanophenyl)-N′-(4-methylphenyl)urea]
O=C(Nc1ccc(OC(F)F)cc1)Nc1ccc2c(c1)OCCO2 [Compound 88, N-[4-(difluoromethoxy)phenyl]-N′-(2,3-dihydro-1,4-benzodioxin-6-yl)urea]
Cc1ccc2cc(NC(=O)Nc3ccc(OC(F)F)cc3)ccc2n1 [Compound 142, N-[4-(difluoromethoxy)phenyl]-N′-(2-methylquinolin-6-yl)urea]
CCOc1ccc(NC(=O)Nc2ccc(CC)cc2)cc1 [Compound 235, N-(4-ethoxyphenyl)-N′-(4-ethylphenyl)urea]
O=C(Nc1cccc(Cl)c1)Nc1cccc(OC(F)F)c1 [Compound 255, N-(3-chlorophenyl)-N′-[3-(difluoromethoxy)phenyl]urea]
O=C(Nc1ccccc1)Nc1cccc(OC(F)F)c1 [Compound 225, N-[3-(difluoromethoxy)phenyl]-N′-phenylurea]
CC(C)c1ccc(NC(=O)Nc2ccc(C#N)cc2)cc1 [Compound 193, N-(4-cyanophenyl)-N′-(4-isopropylphenyl)urea]
CCOc1cccc(NC(=O)Nc2cccc(CC)c2)c1 [Compound 230, N-(3-ethoxyphenyl)-N′-(3-ethylphenyl)urea]
O=C(Nc1ccc(OC(F)F)cc1)Nc1cccc(-c2nccs2)c1 [Compound 71]
CCc1ccc(NC(=O)Nc2ccc(Cl)nc2)cc1 [Compound 153, N-(6-chloropyridin-3-yl)-N′-(4-ethylphenyl)urea]
